Earlier results on one molecule are cited in publication PMC7984856 (European journal of medicinal chemistry, 2021).

Each structure is given as a SMILES string.

This data set concerns catalepsy in rats. As to conditions: previous in vivo behavioral studies, ref [29].

As to `Fc1ccc(CCCCN2CCN(c3ccccn3)CC2)cc1` [Compound 2, 1-(4-(4-fluorophenyl)butyl)-4-(pyridin-2-yl)piperazine], the “propensity to cause catalepsy” value is reported as “low propensity to cause catalepsy”.
